Measurements taken from ChEMBL document CHEMBL3120142 (J Med Chem, 2014).
pEC50: −log10 of the molar value.

How the values were obtained:
Influenza A virus [1] = experiment: microbe, parasite or virus in culture; settings: A/Berlin/55/08(H1N1), MDCK, 48 h
Influenza A virus [2] = settings: mdck

Row | SMILES | pEC50 (Influenza A virus [1]) | pEC50 (Influenza A virus [2])
1 | CCC(CC)O[C@@H]1C=C(C(=O)O)C[C@H](NC(C)=N)[C@H]1NC(C)=O | 5.32 | –
2 | CCC(CC)O[C@@H]1C=C(C(=O)O)C[C@H](NC(=N)N)[C@H]1NC(C)=O | 5.48 | –
3 | CCC(CC)O[C@@H]1C=C(C(=O)O)C[C@H](N)[C@H]1NC(C)=O [OSELTAMIVIR CARBOXYLATE] | < 4.00 | –
4 | CC(=O)N[C@H]1[C@H]([C@H](O)[C@H](O)CO)OC(C(=O)O)=C[C@@H]1NC(=N)N [ZANAMIVIR] | – | 5.91
